Experimental data published in patent US11285156B2, “Substituted piperazines as KRAS G12C inhibitors” (Amgen Inc., priority 2018, dated 2022).
Where two headings read alike, the source gives them in different places.

What was measured:
[1] = tested on: Phosphorylation of ERK1/2 in A549 cells; assay: Phospho-ERK1/2 MSD assay in A549 cells; format: cell-based; details: read-out: p-ERK IC50 (2 h, A549; μM)
Experimental: (§1) Phospho-ERK1/2 MSD Assay:
(§2) MIA PaCa-2 (ATCC® CRL-1420™) and A549 (ATCC® CCL-185™) cells were cultured in RPMI 1640 Medium (ThermoFisher Scientific 11875093) containing 10% fetal bovine serum (ThermoFisher Scientific 16000044) and 1× penicillin-streptomycin-glutamine (ThermoFisher Scientific 10378016). Sixteen hours prior to compound treatment, MIA PaCa-2 or A549 cells were seeded in 96-well cell culture plates at a density of 25,000 cells/well and incubated at 37° C., 5% CO2. A compound dose-response titration was diluted in growth media, added to appropriate wells of a cell culture plate, and then incubated at 37° C., 5% CO2 for 2 or 4 hours (see Table 15). Following compound treatment, cells were stimulated with 10 ng/mL EGF (Roche 11376454001) for 10 min, washed with ice-cold Dulbecco's phosphate-buffered saline, no Ca2+ or Mg2+ (ThermoFisher Scientific 14190144), and then lysed in RIPA buffer (50 mM Tris-HCl pH 7.5, 1% Igepal, 0.5% sodium deoxycholate, 150 mM NaCl. and 0.5% sodium dodecyl sulfate) containing protease inhibitors (Roche 4693132001) and phosphatase inhibitors (Roche 4906837001). Phosphorylation of ERK1/2 in compound-treated lysates was assayed using Phospho-ERK1/2 Whole Cell Lysate kits (Meso Scale Discovery K151DWD) according to the manufacturer's protocol.

[2] = tested on: Phosphorylation of ERK1/2 in MIA PaCa-2 cells; assay: Phospho-ERK1/2 MSD assay in MIA PaCa-2 cells; format: cell-based; details: read-out: p-ERK IC50 (2 h, MiaPaCa-2; μM)
Experimental: as §1
as §2, with “Sixteen” for “MIA PaCa-2 (ATCC® CRL-1420™) and A549 (ATCC® CCL-185™) cells were cultured in RPMI 1640 Medium (ThermoFisher Scientific 11875093) containing 10% fetal bovine serum (ThermoFisher Scientific 16000044) and 1× penicillin-streptomycin-glutamine (ThermoFisher Scientific 10378016). Sixteen”

[3] = target: GDP-bound KRAS protein (aa 1-169), containing both G12C and C118A amino acid substitutions (Homo sapiens (Human), UniProt P01116, C118A/G12C); assay: Coupled nucleotide exchange assay (SOS-mediated nucleotide exchange, AlphaScreen); format: biochemical; details: 5 min compound pre-incubation; for IC50: read-out: Coupled exchange IC50 (5 min; μM)
Sequence of GDP-bound KRAS protein (aa 1-169), containing both G12C and C118A amino acid substitutions (P01116 other isoform, or with tags, fused parts or gaps G12C/C118A): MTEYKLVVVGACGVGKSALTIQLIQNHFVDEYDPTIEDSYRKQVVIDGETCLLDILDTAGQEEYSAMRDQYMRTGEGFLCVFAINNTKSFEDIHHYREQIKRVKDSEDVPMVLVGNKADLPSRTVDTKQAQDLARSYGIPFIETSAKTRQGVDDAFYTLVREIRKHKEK

[4] = Homo sapiens, A549, 2 h, 2 h compound treatment, A549 cells, EGF stimulated
[5] = Homo sapiens, MIA PaCa-2, 2 h, 2 h compound treatment, MIA PaCa-2 cells, EGF stimulated
[6] = 2 h compound treatment, A549 cells, EGF stimulated
[7] = 2 h compound treatment, MIA PaCa-2 cells, EGF stimulated

What does the source list for [2H]C1([2H])CN(c2nc(=O)n(-c3c(C)ccnc3C(C)C)c3nc(-c4c(O)cccc4F)c(F)cc23)CC([2H])([2H])N1C(=O)C=C (atropisomer, axis not shown; (M)) [Example 72-20, (M)-6-Fluoro-7-(2-fluoro-6-hydroxy-phenyl)-1-(2-isopropyl-4-methyl-3-pyridyl)-4-(3,3,5,5-tetradeuterio-4-prop-2-enoyl-piperazin-1-yl)pyrido[2,3-d]pyrimidin-2-one]?
IC50 [1, 4]: > 7.5 µM; IC50 [2, 5]: 0.223 µM; Coupled exchange IC50 (5 min; μM) [3]: 0.382 µM

[2H]C1([2H])CN(C(=O)C=C)CC([2H])([2H])N1c1nc(=O)n(-c2c(C)ccnc2C(C)C)c2nc(-c3c(O)cccc3F)c(F)cc12 (atropisomer, axis not shown; (M)) [Example 72-21, (M)-6-Fluoro-7-(2-fluoro-6-hydroxy-phenyl)-1-(2-isopropyl-4-methyl-3-pyridyl)-4-(2,2,6,6-tetradeuterio-4-prop-2-enoyl-piperazin-1-yl)pyrido[2,3-d]pyrimidin-2-one] was tested. Which IC50 [1, 4] did it give?
Its IC50 is > 7.5 µM.

And the IC50 [2, 5]?
Its IC50 is 0.306 µM.

What about the “Coupled exchange IC50 (5 min; μM)” value [3] of the same compound?
The value was 0.468 µM.

For C=CC(=O)N1C[C@H](C)N(c2nc(=O)n(-c3c(C)ccnc3C(C)C)c3nc(-c4ccccc4C(C)C)c(Cl)cc23)C[C@H]1C (atropisomer, axis not shown; (M)) [Example 92-1, (M)-6-Chloro-4-[(2S,5R)-2,5-dimethyl-4-prop-2-enoyl-piperazin-1-yl]-1-(2-isopropyl-4-methyl-3-pyridyl)-7-(2-isopropylphenyl)pyrido[2,3-d]pyrimidin-2-one], which IC50 [1, 6] is on record?
Its IC50 is > 7.5 µM.

What about the IC50 [2, 7] of the same compound?
The IC50 was 0.014 µM.

And the IC50 [3]?
The IC50 was 0.016 µM.

Which IC50 [1, 6] does the source give for C=CC(=O)N1CCN(c2nc(=O)n(-c3c(C)ccnc3C(C)C)c3nc(-c4c(N)cccc4F)c(Cl)cc23)C[C@H]1C (atropisomer, axis not shown; (M)) [Example 92-2, (M)-7-(2-Amino-6-fluoro-phenyl)-6-chloro-1-(2-isopropyl-4-methyl-3-pyridyl)-4-[(3R)-3-methyl-4-prop-2-enoyl-piperazin-1-yl]pyrido[2,3-d]pyrimidin-2-one] here?
The IC50 was > 7.5 µM.

And the IC50 [2, 7]?
Its IC50 is 0.035 µM.

And the IC50 [3]?
Its IC50 is 0.024 µM.

With C=CC(=O)N1C[C@H](C)N(c2nc(=O)n(-c3c(C)ccnc3C(C)C)c3nc(-c4ccsc4C)c(Cl)cc23)C[C@H]1C (atropisomer, axis not shown; (M)) [Example 92-3, (M)-6-Chloro-4-[(2S,5R)-2,5-dimethyl-4-prop-2-enoyl-piperazin-1-yl]-1-(2-isopropyl-4-methyl-3-pyridyl)-7-(2-methyl-3-thienyl)pyrido[2,3-d]pyrimidin-2-one] as the compound, how does the IC50 [1, 4] read?
Its IC50 is > 7.5 µM.

What about the IC50 [2, 5] of the same compound?
The IC50 was 0.094 µM.

And the IC50 [3]?
Its IC50 is 0.095 µM.

How did the IC50 [1, 6] turn out when C=CC(=O)N1C[C@H](C)N(c2nc(=O)n(-c3c(N(C)C)ccnc3C(C)C)c3nc(-c4c(N)cccc4F)c(Cl)cc23)C[C@H]1C [Example 55-56, 7-(2-Amino-6-fluoro-phenyl)-6-chloro-1-[4-(dimethylamino)-2-isopropyl-3-pyridyl]-4-[(2S,5R)-2,5-dimethyl-4-prop-2-enoyl-piperazin-1-yl]pyrido[2,3-d]pyrimidin-2-one] was run?
The IC50 was > 7.5 µM.

And the IC50 [2, 7]?
Its IC50 is 0.01 µM.

For C=CC(=O)N1C[C@H](C)N(c2nc(=O)n(-c3c(N(C)C)ccnc3C(C)C)c3nc(-c4c(N)cccc4F)c(Cl)cc23)C[C@H]1C [Example 55-57, 7-(2-Amino-6-fluoro-phenyl)-6-chloro-1-[4-(dimethylamino)-2-isopropyl-3-pyridyl]-4-[(2S,5R)-2,5-dimethyl-4-prop-2-enoyl-piperazin-1-yl]pyrido[2,3-d]pyrimidin-2-one], which IC50 [1, 6] is on record?
Its IC50 is > 7.5 µM.

What about the IC50 [2, 7] of the same compound?
The IC50 was 0.177 µM.

C=CC(=O)N1C[C@H](C)N(c2nc(=O)n(-c3c(CC)ccnc3C(C)C)c3nc(-c4ccccc4F)c(Cl)cc23)C[C@H]1C [Example 55-58, 6-Chloro-4-[(2S,5R)-2,5-dimethyl-4-prop-2-enoyl-piperazin-1-yl]-l-(4-ethyl-2-isopropyl-3-pyridyl)-7-(2-fluorophenyl)pyrido[2,3-d]pyrimidin-2-one] was tested. Which IC50 [1, 4] did it give?
The IC50 was > 7.5 µM.

And the IC50 [2, 5]?
The IC50 was 0.056 µM.

Which results are given for C=CC(=O)N1C[C@H](C)N(c2nc(=O)n(-c3c(C(C)C)cccc3C(C)C)c3nc(-c4ccccc4F)c(Cl)cc23)C[C@H]1C [Example 102-1, 4-((2S,5R)-4-Acryloyl-2,5-dimethylpiperazin-1-yl)-6-chloro-1-(2,6-diisopropylphenyl)-7-(2-fluorophenyl)pyrido[2,3-d]pyrimidin-2(1H)-one]?
IC50 [1, 4]: 5.25 µM; IC50 [2, 5]: 0.395 µM

For C=CC(=O)N1C[C@H](C)N(c2nc(=O)n(-c3c(C(C)C)ccnc3C(C)C)c3nc(-c4ccccc4F)c(Cl)cc23)C[C@H]1C [Example 102-3, 6-Chloro-1-(2,4-diisopropyl-3-pyridyl)-4-[(2S,5R)-2,5-dimethyl-4-prop-2-enoyl-piperazin-1-yl]-7-(2-fluorophenyl) pyrido[2,3-d]pyrimidin-2-one], which IC50 [1, 4] is on record?
The IC50 was > 7.5 µM.

And the IC50 [2, 7]?
Its IC50 is 0.032 µM.

C=CC(=O)N1C[C@H](C)N(c2nc(=O)n(-c3c(C(C)C)cc(Br)nc3C(C)C)c3nc(-c4ccccc4F)c(Cl)cc23)C[C@H]1C [Example 102-4, 1-(6-Bromo-2,4-diisopropyl-3-pyridyl)-6-chloro-4-[(2S,5R)-2,5-dimethyl-4-prop-2-enoyl-piperazin-1-yl]-7-(2-fluorophenyl) pyrido[2,3-d]pyrimidin-2-one] was tested. Which IC50 [1, 4] did it give?
The IC50 was 4.73 µM.

And the IC50 [2, 5]?
Its IC50 is 0.262 µM.

C=CC(=O)N1C[C@H](C)N(c2nc(=O)n(-c3c(C(C)C)ccnc3C(C)C)c3nc(-c4ccccc4F)c(Cl)cc23)C[C@H]1C [Example 124-1, 6-Chloro-1-(2,4-diisopropyl-3-pyridyl)-4-[(2S,5R)-2,5-dimethyl-4-prop-2-enoyl-piperazin-1-yl]-7-(2-fluorophenyl)pyrido[2,3-d]pyrimidin-2-one] was tested. Which IC50 [1, 6] did it give?
The IC50 was > 7.5 µM.

What about the IC50 [2, 7] of the same compound?
The IC50 was 0.024 µM.

C=CC(=O)N1C[C@H](C)N(c2nc(=O)n(-c3c(C(C)C)ccnc3C(C)C)c3nc(-c4ccccc4)c(Cl)cc23)C[C@H]1C [Example 124-7, 6-Chloro-1-(2,4-diisopropyl-3-pyridyl)-4-[(2S,5R)-2,5-dimethyl-4-prop-2-enoyl-piperazin-1-yl]-7-phenyl-pyrido[2,3-d]pyrimidin-2-one] was tested. Which IC50 [1, 4] did it give?
Its IC50 is > 7.5 µM.

What about the IC50 [2, 5] of the same compound?
Its IC50 is 0.093 µM.

Which IC50 [1, 4] does the source give for C=CC(=O)N1C[C@H](C)N(c2nc(=O)n(-c3c(C(C)C)ccnc3C(C)C)c3nc(-c4ccccc4C(C)C)c(Cl)cc23)C[C@H]1C [Example 124-8, 6-Chloro-1-(2,4-diisopropyl-3-pyridyl)-4-[(2S,5R)-2,5-dimethyl-4-prop-2-enoyl-piperazin-1-yl]-7-(2-isopropylphenyl)pyrido[2,3-d]pyrimidin-2-one] here?
The IC50 was 6.36 µM.

What about the IC50 [2, 5] of the same compound?
The IC50 was 0.24 µM.

Which results are given for C=CC(=O)N1C[C@H](C)N(c2nc(=O)n(-c3c(C(C)C)nc(CN(C)C)nc3C(C)C)c3nc(-c4ccccc4F)c(Cl)cc23)C[C@H]1C [Example 160, 4-((2S,5R)-4-Acryloyl-2,5-dimethylpiperazin-1-yl)-6-chloro-1-(2-((dimethylamino)methyl)-4,6-diisopropylpyrimidin-5-yl)-7-(2-fluorophenyl)pyrido[2,3-d]pyrimidin-2(1H)-one]?
IC50 ([1]; Homo sapiens, A549, 2 h): > 7.5 µM; IC50 ([2]; Homo sapiens, MIA PaCa-2, 2 h): 0.058 µM
